Assay results from patent publication US4783482A, “Bis(thiocyanato)palladium(II)complexes” (Engelhard Corporation, priority 1985, dated 1988).
Values joined by “and” are separate entries in the source; they are usually repeats but may differ in a detail not shown here. Equal entries are not always repeated.

How the values were obtained:
[1] = tested on: S180 ascites; test: Anti-tumor evaluation: % increase in life span (% ILS) and survivors, S180 ascites in female CFW Swiss mice; assay type: in vivo; conditions: for Best % ILS: best over doses
Protocol: The above-prepared compounds were evaluated against S180 ascites in female CFW Swiss mice. The mice were weighed (average weight: 20 g), placed into cages (four or six mice to a cage), and on day zero the mice were inoculated with 0.2 ml of a freshly prepared saline suspension (0.15 M NaCl) containing 1×10^7 tumor cells/ml or a total of 2×10^6 cells This inoculum was freshly prepared using "transfer" mice, which had been injected with tumor cells the previous week; it was obtained via the following steps: (1) the removal of cells from the peritoneal cavity of the sacrificed transfer mouse, (2) alternate centrifugation and washing operations (2-3 times with cold saline) to remove blood and other components, and (3) dilution of the volume of the packed cell with saline (1:3). A final centrifugation was carried out at 1000 RPM over a two minute period. A cell count was made on a 2,000-fold dilution of this 1:3 suspension by means of a Coulter Counter. A final dilution to 1×10^7 cells/ml was made, based on the average count.
On day 1, solutions of the test compounds were prepared, and each mouse in a set of four or six were injected with the same test compound at the same dosage. The doses were based on the average weight of the animals (cage weight). Also, beginning on day 1, two controls were employed containing six mice per control:
(1) Normal Control: This consisted solely of the carrier or diluent used in combination with the test compound; and
(2) Positive Control: This consisted solely of known anti-tumor agent cis-[Pt(NH3)2 Cl2 ] in saline (8 mg/kg) to test the response of the biological system.
The effectiveness of a test compound was measured in terms of the % increase in life span (%ILS) of the test mice relative to the Normal Control (Calculated from the day of tumor inoculation, i.e., day zero). To standardize the test data and permit intercomparisons, the day of evaluation was arbitrarily taken as that day corresponding to twice the mean life span (or average day of death) of the control. This established a practical upper limit of 100% on the %ILS attainable. For calculation purposes, the survivors of the day of evaluation were considered to have died on that day. The %ILS was calculated as follows: [formula] ILS values in excess of 50% were interpreted as antitumor activity, whereas values in excess of 75% indicated excellent antitumor activity.
All test compounds were evaluated in water containing 0.1-0.3% of the suspending agent "Klucel" (hydroxypropylcellulose).
Tables 3 and 4, infra, show the criticality of the ring size and the thiocyanato substituents, respectively. The protocols for determining effectiveness for the products in Tables 3 and 4 were identical to the procedure employed for determining the anti-tumor effectiveness of the products in Table 2.

[2] = tested on: S180 Ascites; test: ED90, LD50 and therapeutic index, S180 ascites; assay type: in vivo, mice; conditions: mouse, in vivo
Protocol: The effective dose (ED90), lethal does (LD50) and therapeutic index (TI) were determined, via the method of Miller and Taiter (Reported by R. A. Turner, "Screening Methods in Pharmacology", Academic Press, New York, pages 61-62 (1976)).
In this study, ED90 represents the dose which causes a 50% increase in life span (ILS) in 90% of the test animals (mice), determined graphically. The LD50 value represents the lethal dose in 50% of said animals.

[3] = dose 10 mg/kg, on day of evaluation
[4] = dose 20 mg/kg, on day of evaluation
[5] = dose 40 mg/kg, on day of evaluation
[6] = dose 80 mg/kg, on day of evaluation
[7] = dose 160 mg/kg, on day of evaluation
[8] = dose 320 mg/kg, on day of evaluation
[9] = dose 5 mg/kg, on day of evaluation (twice mean life span of control)

N#C[S][Pd-2]1([S]C#N)[NH2+]CCC[NH2+]1 [Comp. Ex. A, bis(thiocyanato)-1,3-diaminopropanepalladium(II)]
% ILS ([1]; dose 10 mg/kg): 1%
Survivors [1, 3]: 0 of 4
% ILS ([1]; dose 20 mg/kg): 9%
Survivors [1, 4]: 0 of 4
% ILS ([1]; dose 40 mg/kg): -4%
Survivors [1, 5]: 0 of 4
% ILS ([1]; dose 80 mg/kg): -70%
Survivors [1, 6]: 0 of 4
% ILS ([1]; dose 160 mg/kg): -88%
Survivors [1, 7]: 0 of 4
% ILS ([1]; dose 320 mg/kg): -93%
Survivors [1, 8]: 0 of 4

N#C[S][Pd][S]C#N.NCCCCN [Comp. Ex. B, bis(thiocyanato)-1,4-diaminobutanepalladium(II)]
% ILS ([1]; dose 10 mg/kg): -1%
Survivors [1, 3]: 0 of 6
% ILS ([1]; dose 20 mg/kg): 15%
Survivors [1, 4]: 0 of 6
% ILS ([1]; dose 40 mg/kg): -4%
Survivors [1, 5]: 0 of 6
% ILS ([1]; dose 80 mg/kg): -21%
Survivors [1, 6]: 0 of 5
% ILS ([1]; dose 160 mg/kg): 47%
Survivors [1, 7]: 0 of 5
% ILS ([1]; dose 320 mg/kg): 2%
Survivors [1, 8]: 0 of 5

N#C[S][Pd]1([S]C#N)[NH]CC(O)C[NH]1 [Comp. Ex. C, bis(thiocyanato)-1,3-diamino-2-propanolpalladium(II)]
% ILS ([1]; dose 10 mg/kg): -4%
Survivors [1, 3]: 0 of 6
% ILS ([1]; dose 20 mg/kg): -7%
Survivors [1, 4]: 0 of 6
% ILS ([1]; dose 40 mg/kg): -8%
Survivors [1, 5]: 0 of 6
% ILS ([1]; dose 80 mg/kg): -76%
Survivors [1, 6]: 0 of 6
% ILS ([1]; dose 160 mg/kg): -87%
Survivors [1, 7]: 0 of 6
% ILS ([1]; dose 320 mg/kg): -92%
Survivors [1, 8]: 0 of 6

N#C[S][Pd-2]1([S]C#N)[NH2+]c2cccc3cccc(c23)[NH2+]1 [Comp. Ex. D, bis(thiocyanato)-1,8-diaminonaphthalenepalladium(II)]
% ILS ([1]; dose 10 mg/kg): -11%
Survivors [1, 3]: 0 of 6
% ILS ([1]; dose 20 mg/kg): -9%
Survivors [1, 4]: 0 of 6
% ILS ([1]; dose 40 mg/kg): -11%
Survivors [1, 5]: 0 of 6
% ILS ([1]; dose 80 mg/kg): -19%
Survivors [1, 6]: 0 of 6
% ILS ([1]; dose 160 mg/kg): -28%
Survivors [1, 7]: 0 of 6
% ILS ([1]; dose 320 mg/kg): 48%
Survivors [1, 8]: 1 of 6

N#C[S-].N#C[S-].NCC(=O)CN.[Pd+2] [Comp. Ex. E, Bis(Thiocyanato)diaminoacetonepalladium(II)]
% ILS ([1]; dose 5 mg/kg): 3%
Survivors [1, 9]: 0 of 4
% ILS ([1]; dose 10 mg/kg): 8%
Survivors [1, 3]: 0 of 4
% ILS ([1]; dose 20 mg/kg): 13%
Survivors [1, 4]: 0 of 4
% ILS ([1]; dose 40 mg/kg): 3%
Survivors [1, 5]: 0 of 4
% ILS ([1]; dose 80 mg/kg): 1%
Survivors [1, 6]: 0 of 4
% ILS ([1]; dose 160 mg/kg): 13%
Survivors [1, 7]: 0 of 4

NCCN.O=N[O-].O=N[O-].[Pd+2] [Comp. Ex. F, Dinitro(Ethylenediamine)palladium(II)]
% ILS ([1]; dose 10 mg/kg): 2%
Survivors [1, 3]: 0 of 4
% ILS ([1]; dose 20 mg/kg): 6%
Survivors [1, 4]: 0 of 4
% ILS ([1]; dose 40 mg/kg): -15%
Survivors [1, 5]: 0 of 4
% ILS ([1]; dose 80 mg/kg): -59%
Survivors [1, 6]: 0 of 4
% ILS ([1]; dose 160 mg/kg): -87%
Survivors [1, 7]: 0 of 4

NCCCN.O=[N+]([O-])[Pd][N+](=O)[O-] [Comp. Ex. G, dinitro(1,3-diaminopropane)palladium(II)]
% ILS ([1]; dose 10 mg/kg): 13%
Survivors [1, 3]: 0 of 4
% ILS ([1]; dose 20 mg/kg): 16%
Survivors [1, 4]: 0 of 4
% ILS ([1]; dose 40 mg/kg): 27%
Survivors [1, 5]: 0 of 4
% ILS ([1]; dose 80 mg/kg): 0%
Survivors [1, 6]: 1 of 4
% ILS ([1]; dose 160 mg/kg): -89%
Survivors [1, 7]: 0 of 4

NC1CCCCC1N.O=[N+]([O-])[Pd][N+](=O)[O-] (stereo not shown) [Comp. Ex. H, Dinitro(1,2-diaminocyclohexane)palladium(II)]
% ILS ([1]; dose 10 mg/kg): 12%
Survivors [1, 3]: 0 of 4
% ILS ([1]; dose 20 mg/kg): 3%
Survivors [1, 4]: 0 of 4
% ILS ([1]; dose 40 mg/kg): -3%
Survivors [1, 5]: 0 of 4
% ILS ([1]; dose 80 mg/kg): 21%
Survivors [1, 6]: 0 of 4

Nc1ccccc1N.O=N[O-].O=N[O-].[Pd+2] [Comp. Ex. I, dinitro(o-phenylenediamine)palladium(II)]
% ILS ([1]; dose 10 mg/kg): 21%
Survivors [1, 3]: 0 of 4
% ILS ([1]; dose 20 mg/kg): 3%
Survivors [1, 4]: 0 of 4
% ILS ([1]; dose 40 mg/kg): 29%
Survivors [1, 5]: 1 of 4
% ILS ([1]; dose 80 mg/kg): 19%
Survivors [1, 6]: 0 of 4

NCCN.[I-].[I-].[Pd+2] [Comp. Ex. L, Diiodo(ethylenediamine)palladium(II)]
% ILS ([1]; dose 5 mg/kg): -17%
Survivors [1, 9]: 0 of 4
% ILS ([1]; dose 10 mg/kg): -13%
Survivors [1, 3]: 0 of 4
% ILS ([1]; dose 20 mg/kg): -9%
Survivors [1, 4]: 0 of 4
% ILS ([1]; dose 40 mg/kg): -11%
Survivors [1, 5]: 0 of 4
% ILS ([1]; dose 80 mg/kg): 24%
Survivors [1, 6]: 0 of 4
% ILS ([1]; dose 160 mg/kg): 32%
Survivors [1, 7]: 1 of 4

[I][Pd]1([I])[NH]C2CCCCC2[NH]1 (stereo not shown) [Comp. Ex. M, Diiodo(1,2-Diaminocyclohexane)palladium(II)]
% ILS ([1]; dose 5 mg/kg): -4%
Survivors [1, 9]: 0 of 4
% ILS ([1]; dose 10 mg/kg): -9%
Survivors [1, 3]: 0 of 4
% ILS ([1]; dose 20 mg/kg): -20%
Survivors [1, 4]: 0 of 4
% ILS ([1]; dose 40 mg/kg): -15%
Survivors [1, 5]: 0 of 4
% ILS ([1]; dose 80 mg/kg): -16%
Survivors [1, 6]: 0 of 4
% ILS ([1]; dose 160 mg/kg): 77%
Survivors [1, 7]: 1 of 4

N#C[S-].N#C[S-].NCCN.[Pd+2] [Ex. 1, Bis(Thiocyanato)ethylenediaminepalladium(II)]
Best % ILS [1]: 79%
% ILS ([1]; dose 10 mg/kg): 2%
Survivors [1, 3]: 0 of 4
% ILS ([1]; dose 20 mg/kg): 18%
Survivors [1, 4]: 0 of 4
% ILS ([1]; dose 40 mg/kg): 79%
Survivors [1, 5]: 0 of 4
% ILS ([1]; dose 80 mg/kg): 2%
Survivors [1, 6]: 1 of 4
% ILS ([1]; dose 160 mg/kg): -87%
Survivors [1, 7]: 0 of 4
% ILS ([1]; dose 320 mg/kg): -87%
Survivors [1, 8]: 0 of 4

CC1C[NH][Pd]([S]C#N)([S]C#N)[NH]1 (stereo not shown) [Ex. 2, Bis(Thiocyanato)-1,2-Diaminopropanepalladium(II)]
Best % ILS [1]: 59%
% ILS ([1]; dose 5 mg/kg): 16%
Survivors [1, 9]: 0 of 6
% ILS ([1]; dose 10 mg/kg): 13%
Survivors [1, 3]: 0 of 6
% ILS ([1]; dose 20 mg/kg): 17%
Survivors [1, 4]: 0 of 6
% ILS ([1]; dose 40 mg/kg): 59%
Survivors [1, 5]: 2 of 6
% ILS ([1]; dose 80 mg/kg): -21%
Survivors [1, 6]: 1 of 6
% ILS ([1]; dose 160 mg/kg): -74%
Survivors [1, 7]: 0 of 6

N#C[S][Pd][S]C#N.NC1CCCCC1N (stereo not shown) [Ex. 3, Bis(ThiocYanato)-1,2-Diaminocyclohexanepalladium(II)]
Best % ILS [1]: 100% and 75%
% ILS ([1]; dose 5 mg/kg): 0%
Survivors [1, 9]: 0 of 4
% ILS ([1]; dose 10 mg/kg): 5%
Survivors [1, 3]: 0 of 4
% ILS ([1]; dose 20 mg/kg): 1%
Survivors [1, 4]: 0 of 4
% ILS ([1]; dose 40 mg/kg): -1% and -3%
Survivors [1, 5]: 0 of 4
% ILS ([1]; dose 60 mg/kg): 22%
Survivors ([1]; dose 60 mg/kg, on day of evaluation): 0 of 4
% ILS ([1]; dose 80 mg/kg): 75% and 100%
Survivors [1, 6]: 3 of 4 and 4 of 4
% ILS ([1]; dose 100 mg/kg): 79%
Survivors ([1]; dose 100 mg/kg, on day of evaluation): 2 of 4
% ILS ([1]; dose 120 mg/kg): 36%
Survivors ([1]; dose 120 mg/kg, on day of evaluation): 2 of 4
% ILS ([1]; dose 140 mg/kg): 36%
Survivors ([1]; dose 140 mg/kg, on day of evaluation): 1 of 4
% ILS ([1]; dose 160 mg/kg): 39%
Survivors [1, 7]: 1 of 4
Therapeutic Index [2]: 2.0 and 2.8

C[NH+]1CC[NH+](C)[Pd-2]1([S]C#N)[S]C#N (stereo not shown) [Ex. 4, Bis(Thiocyanato)-N,N'-Dimethylethylenediaminepalladium(II)]
Best % ILS [1]: 62%
% ILS ([1]; dose 5 mg/kg): -2%
Survivors [1, 9]: 0 of 6
% ILS ([1]; dose 10 mg/kg): 1%
Survivors [1, 3]: 0 of 6
% ILS ([1]; dose 20 mg/kg): -5%
Survivors [1, 4]: 0 of 6
% ILS ([1]; dose 40 mg/kg): 18%
Survivors [1, 5]: 1 of 6
% ILS ([1]; dose 80 mg/kg): 62%
Survivors [1, 6]: 2 of 6
% ILS ([1]; dose 160 mg/kg): -45%
Survivors [1, 7]: 1 of 6
